Assay results as given in PMC12808100, “The non-catalytic DNA polymerase ε subunit is an NPF motif recognition protein” (Nature Communications, 2025).

Test system: His6-avi-MBP-tagged POLE2
Experiment: Single-point nHU-MS with recombinant His6-avi-MBP-POLE2 bait, Jurkat extract
Assay type: binding, human
Settings: for BI / log2FC / pKapp: bait av-His6-MBP-tagged full-length POLE2
Excerpt: So far, our study only focused on a few hand-picked NPF motifs and studied them as short synthetic peptides. However, many other proteins may be present in the proteome that could bind to POLE2 and their putative NPF motifs are embedded in their natural structures that can greatly affect their binding properties. To investigate interactions between POLE2 and intact, full length proteins proteome-wide, we used nHU-MS experiments with recombinant His6-avi-MBP-tagged POLE2 as bait and purified His6-avi-MBP as a control. Even though we are aware that this recombinant POLE2 may bind to NPF motifs with a somewhat altered affinity, we assumed that this would affect all NPF motif-mediated interactions equally, allowing an unbiased affinity ranking of all identified partners. Single point nHU measurements were performed at 26 μM POLE2 concentration and the recovered supernatant was measured by label free proteomic MS measurements (Fig. 3A, Supplementary Figs. 8A, 9, Supplementary Data 1).
Single-point nHU experiments with protein baits were carried out nearly identically with two key modifications. First, the resin saturation step was carried out by mixing 50 μl streptavidin resin with 0.5−1 ml 50 μM biotinylated protein solution and the mixture was incubated for 1.5 h at 4 °C with constant agitation. Second, instead of using estimated bait concentrations, we measured it experimentally. An extra aliquot of resin stock was prepared alongside the nHU samples that were identically processed that were used to eluate the immobilized proteins under harsh conditions, in order to experimentally quantify the Cbait by using densitometry of Coomassie stained SDS-PAGE that included a protein calibration series. For this, 50 μl bait-saturated resin aliquots were mixed with 200 μl 4x Laemmli Sample Buffer (120 mM Tris-HCl pH 7, 8% SDS, 100 mM DTT, 32% glycerol, 0.004% bromphenol blue, 1% β-mercaptoethanol), instead of cell extract. After 15 min incubation at 95 °C, these samples were analyzed by SDS-PAGE using protein calibration standard, made from recombinant MBP. Densitometry was carried out after Coomassie staining on raw Tif images by using Fiji ImageJ 1.53c and experimental bait concentration were determined by adjusting for molecular weight differences between MBP and MBP-POLE2 constructs.
Samples were digested overnight at 37 °C.

[1] = non-zero for significant partners, MS6_Varjosalo
[2] = significant apparent affinity of endogenous prey protein for POLE2 bait, single-point nHU-MS, Figure S11

Row | Substance | pKapp_sign [2] | further results
1 | PSASG [NUP214, endogenous full length prey protein] | 3.986 | BI (MS6_Varjosalo): 0.2012; log2FC (MS6_Varjosalo): -0.3242; pKapp (MS6_Varjosalo): 3.986; pKapp_sign [1]: 3.986
2 | MIOS | 4.5333 | –
3 | RSRSVS [ZNRF1] | 4.487 | –
4 | TTAATSV [SEC23IP] | 4.243 | –
5 | PVGGND [USP9X, endogenous full length prey protein] | 4.835 | –
6 | RHRA [FIP1L1] | 4.277 | –
7 | PPSSKVSSHS [CNTRL] | 4.363 | –
8 | PSASR [NUP188] | 4.034 | –
9 | KPTSTYSLSS [VIPAS39] | 4.13 | –
10 | NPFQ [MAPK1IP1L, endogenous full length prey protein] | 4.047 | –
11 | SLGEI [GYG1] | 4.703 | –
12 | PSTST [UBR5, endogenous full length prey protein] | 4.008 | BI (MS6_Varjosalo): 0.2095; log2FC (MS6_Varjosalo): -0.3392; pKapp (MS6_Varjosalo): 4.008; pKapp_sign [1]: 4.008
13 | PSASM [RFWD3] | 4.618 | –
14 | PSASS [ERCC6L, endogenous full length prey protein] | 4.421 | –
15 | KDDY [DNAJC10] | 4.21 | –
16 | TNSTSD [PIKFYVE] | 4.132 | –
17 | NPFT [NOSIP, endogenous full length prey protein] | 4.058 | –
18 | KPKKPLTSSS [MAPRE1] | 4.964 | –
19 | QPLRH [OIP5] | 4.225 | –
20 | TRIM27 | 4.707 | –
21 | NPFI [DNAJA3, endogenous full length prey protein] | 4.13 | –
22 | NSVD [PLEKHA5, endogenous full length prey protein] | 4.548 | –
23 | TSPTSD [NUMB, endogenous full length prey protein] | 4.316 | –
24 | PSSST [GIGYF2] | 4.1436 | –

Row | Substance | pKapp_sign [2] | further results
25 | SSQSY [EIF4E2] | 4.429 | –
26 | QDLGNI [CTSA] | 4.815 | –
27 | AGL | 4.38 | –
28 | NPFA [WDR59, endogenous full length prey protein] | 4.457 | –
29 | PYCR1: endogenous full length prey protein | 4.011 | log2FC (MS6_Varjosalo): -0.3412
30 | CRIPT | 4.909 | –
31 | SSNSQ [PNPT1] | 4.014 | –
32 | LSVD [LEF1] | 4.471 | –
33 | PAAST [NUP58] | 4.1 | –
34 | SLRED [INPP5K] | 4.539 | –
35 | RSVD [PLEKHA7] | 4.312 | –
36 | TRIM25 | 4.096 | –
37 | DEGFK [ACACA, endogenous full length prey protein] | 3.986 | BI (MS6_Varjosalo): 0.2013; log2FC (MS6_Varjosalo): -0.3242; pKapp (MS6_Varjosalo): 3.986; pKapp_sign [1]: 3.986
38 | ARLRH [AKNA] | 4.257 | –
39 | PSASS [TTF2, endogenous full length prey protein] | 4.771 | –
40 | PSAST [EPN2, endogenous full length prey protein] | 4.531 | –
41 | PSPST [EXO1] | 4.499 | –
42 | NPFK [CCDC134, endogenous full length prey protein] | 4.219 | –
43 | PSVST [ZMYM1] | 4.45 | –
44 | NPFQ [SSBP2, endogenous full length prey protein] | 4.583 | –
45 | RARA [INKA1] | 5.687 | –
46 | PVLGNI [SSBP3] | 4.288 | –
47 | ASVD [CPSF4] | 4.068 | –
